Columns and labels:
[1] = biological target: T1, S-layer protein SpaA (SpaASLH/G46A/G109A) (Paenibacillus alvei, UniProt C1JZ07, G46A/G109A); test: co-crystal structure (no binding detected by ITC)
T1 construct: SLH domain trimer, amino acids 21–193, Ser-Gly-Ser linker and C-terminal His6-tag
T1 sequence (C1JZ07 21-193 G46A/G109A): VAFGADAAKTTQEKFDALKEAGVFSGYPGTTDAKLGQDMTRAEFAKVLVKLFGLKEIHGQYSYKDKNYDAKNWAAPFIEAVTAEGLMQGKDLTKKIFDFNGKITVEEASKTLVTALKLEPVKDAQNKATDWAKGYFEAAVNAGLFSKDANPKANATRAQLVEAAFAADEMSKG

[2] = biological target: T2, S-layer protein SpaA (SpaASLH) (Paenibacillus alvei, UniProt C1JZ07); test: ITC and co-crystal structures; type: binding
T2 construct: SLH domain trimer, amino acids 21–193, Ser-Gly-Ser linker and C-terminal His6-tag
T2 sequence (C1JZ07 21-193): T1 sequence (C1JZ07 21-193 G46A/G109A)

[3] = biological target: T3, S-layer protein SpaA (SpaASLH/G109A) (Paenibacillus alvei, UniProt C1JZ07, G109A); test: ITC and co-crystal structure; type: binding
T3 construct: SLH domain trimer, amino acids 21–193, Ser-Gly-Ser linker and C-terminal His6-tag

[4] = biological target: T2, S-layer protein SpaA (SpaASLH); test: co-crystal structure (no binding detected by ITC)

In the case of `CO[C@@H]1O[C@@H]2CO[C@](C)(C(=O)O)O[C@H]2[C@H](O)[C@@H]1NC(C)=O` [monosaccharide (M), 4,6-Pyr-β-D-ManNAcOMe], the “co-crystal structure (no binding detected by ITC)” value [1] is reported as “Despite the lack of binding detected by ITC, ligand is again observed bound in the G2 pocket”, the Kd [2] is reported as 29 nM and the Kd [3] is reported as 226 nM.
With `CO[C@@H]1O[C@@H]2CO[C@](C)(C(=O)O)O[C@H]2[C@H](O[C@@H]2O[C@H](CO)[C@@H](O)[C@H](O)[C@H]2NC(C)=O)[C@@H]1NC(C)=O` [disaccharide, β-D-GlcNAc-(1 → 3)-4,6-Pyr-β-D-ManNAcOMe] the “co-crystal structure (no binding detected by ITC)” value [4] was “Despite the lack of binding measured by ITC, a co-crystal structure with the internal disaccharide was obtained”.
